Key:
PARP = PARP inhibition by PAR levels in PBMCs (ELISA); type: in vivo, human
Experimental: Inhibition of PARP activity was measured by quantifying PAR in PBMCs using an enzyme-linked immunosorbent assay (HT PARP in vivo Pharmacodynamic Assay II kit). PAR levels in PBMCs and the percentage change from baseline were summarised by dose and nominal sampling time point.

SNU-423 = experiment: 8-day growth inhibition; type: cell-based; details: HCC, SNU-423, 8-day assay
[1] = 2-compartment pharmacokinetic model; type: in vivo, human; details: model estimate
From the text: In the second stage, the final parameters from the pharmacokinetic model were fixed for sequential PK/PD modelling.

In the case of `O=c1[nH]nc2c3c(cccc13)N=C(CN1Cc3ccccc3C1)N2` [E7449], the “Time of maximal decrease in PAR levels after administration” value (PARP; 600 mg, fasted cohort) is reported as 2 to 4 h, the “Time of maximal decrease in PAR levels post treatment” value (PARP; 600 mg, fed cohort) is reported as 4 to 8 h and the “Decrease in PAR levels” value (PARP; 24-h post-dose time points (cycle 1, days 1, 7, 8 and 16)) is reported as at least 70%. For the same molecule, the “Population mean PARP inhibition” value (PARP; MTD 600 mg once daily, steady state, PAR in PBMCs) was “approximately 90%”, the “Inhibition in PAR levels from baseline” value (PARP; food-effect cohorts, 600 mg) was “up to 90%” and the IC50 (SNU-423) was 19 µM. For the same molecule, the k12 ([1]; central to peripheral compartment) was 0.21 h⁻¹, the “V/F, apparent volume of distribution for the central compartment” value ([1]; all doses fitted) was 149.7 L and the “ka, absorption rate constant” value ([1]; all doses fitted) was 0.82 h⁻¹. For the same molecule, the “ke, first-order elimination rate constant” value ([1]; all doses fitted) was 0.51 h⁻¹ and the k21 ([1]; peripheral to central compartment) was 0.27 h⁻¹.

From publication PMC7434893 (British Journal of Cancer, 2020)
